Measured values published in PMC12190436, “5-Ene-2-arylaminothiazol-4(5H)-ones Induce Apoptosis in Breast Cancer Cells” (Cells, 2025).
Counter-ions that a name gives are not always drawn.

Key:
[1] = tested on: MCF-7 cells; experiment: ROS generation, H2DCFDA/DAPI double staining; type: cell-based, human
Experimental: MCF-7 cells were seeded in 6-well plates at 1 × 10^5 cells per well in 2 mL medium. Afterwards, cells were treated with the mentioned compounds for 1 and 3 h, respectively. Next, cells were washed, and 20 µM of H2DCFDA was added for 30 min. After that, 10 µg/mL of DAPI was added to observe the nuclear DNA of cells. The results were obtained with the use of a Nikon ECLIPSE Ti fluorescence microscope (Nikon, Tokyo, Japan), followed by further assessment via ImageJ software version 1.54k (Bethesda, MD, USA).
H2DCFDA (green fluorescence) was utilized to mark oxidative stress, and DAPI (blue fluorescence) to stain nuclear genetic material.

[2] = tested on: HT29; type: cell-based
[3] = tested on: MCF-7 cells; experiment: Acridine orange/ethidium bromide staining, morphology; type: cell-based, human; conditions: 5 µM, 24 h, MCF-7, AO/EB staining
Experimental: To display morphological changes in the MCF-7 cells after 24 h of treatment by lead compound Les-6416 and the positive control doxorubicin, we performed acridine orange and ethidium bromide staining. MCF-7 cells were seeded in 6-well plates at 1 × 10^5 cells per well in 2 mL medium, followed by incubation for 24 h. Afterwards, the cells were treated with lead compound Les-6416 at a concentration equal to 5 µM and DOX in a concentration equal to 0.5 µM. Next, cells were washed with 1 mL of PBS per well. Subsequently, double staining was performed using 10 µL of AO and EB, incubated at room temperature for 10 min. After that, cells were washed with PBS. Images were obtained with the use of a Nikon ECLIPSE Ti fluorescence microscope (Nikon, Tokyo, Japan). Images were analyzed using ImageJ software version 1.54k (Bethesda, MD, USA).
To analyze morphological changes in MCF-7 cells after 24 h of treatment, we performed the double staining with acridine orange and ethidium bromide. This method provides the capability to observe different stages of cell death depending on cell membrane integrity and chromatin condensation. Green fluorescence can be observed due to acridine orange staining, that penetrates all cells, while red coloring is contributed to ethidium bromide, which can only penetrate cells with injured cell membranes. […]

[4] = tested on: Bax; experiment: Bax, anti-Bax FITC antibody flow cytometry; type: cell-based, human; conditions: 5 µM, 24 h, MCF-7
Experimental: To evaluate the effects of the tested compounds on the concentration of Bax protein, anti-Bax FITC-conjugated antibody was applied. MCF-7 cells were seeded on 6-well plates at 5 × 10^6 cells per well, followed by incubation for 24 h. Afterwards, the cells were treated for 24 h with new 4-thiazolidinone derivatives (Les-6416, Les-6418, Les-6381, Les-6423, and Les-6424) at a concentration of 5 µM. Then, cells were collected and incubated with 4% formaldehyde for 15 min at RT. Next, cells were washed with an excess amount of PBS, followed by permeabilization by adding ice-cold 90% methanol and incubation for 60 min in an ice bath. Cells were again washed with an excess of PBS and resuspended in 100 µL of diluted primary antibody, prepared in antibody dilution buffer at a 1:100 dilution, and incubated for 60 min at room temperature in the dark. Cells were washed, resuspended in 0.3 mL, and transferred to the tubes for immediate assessment using a BD FACSCanto II flow cytometer (Becton Dickinson Biosciences, San Jose, CA, USA). For each sample, 1 × 10^4 events were analyzed. The results were analyzed using FACSDiva software Version 6.1.3 (BD Biosciences Systems, San Jose, CA, USA).
Another important protein for the intrinsic pathway of apoptosis is a pro-apoptotic member of the Bcl-2 family-Bax. […]

[5] = tested on: SK-MEL-2; type: cell-based
[6] = tested on: ACHN; type: cell-based
[7] = tested on: KM12; type: cell-based
[8] = tested on: LOX IMVI; type: cell-based; conditions: MG_MID_60/value
[9] = tested on: CCRF-CEM; type: cell-based
[10] = tested on: NCI/ADR-RES; type: cell-based
[11] = tested on: OVCAR-8; type: cell-based
[12] = tested on: RPMI-8226; type: cell-based
[13] = tested on: SF-539; type: cell-based
[14] = tested on: SK-MEL-28; type: cell-based
[15] = tested on: SK-OV-3; type: cell-based
[16] = Homo sapiens, 48 h, read-out: LC50 (the source's name)

`COc1cccc2c1C(=O)c1c(O)c3c(c(O)c1C2=O)C[C@@](O)(C(=O)CO)C[C@@H]3O[C@H]1C[C@H](N)[C@H](O)[C@H](C)O1` [DOX, Doxorubicin hydrochloride, reference compound] was tested, and the “ROS generation versus control” value ([1]; 0.5 µM, 3 h) was “approximately two times more than the untreated control”.
`COc1cc(NC2=NC(=O)C(=Cc3ccc4cc[nH]c4c3)S2)cc(OC)c1OC` [Les-6416, 5-((1H-Indol-6-yl)methylene)-2-((3,4,5-trimethoxyphenyl)amino)thiazol-4(5H)-one] was tested, and the “ROS generation versus control” value ([1]; 2.5 µM, 3 h) was “approximately two times more than the untreated control”, the “ROS generation versus control” value ([1]; 5 µM, 1 h) was “two times more than the control” and the “ROS generation versus control” value ([1]; 5 µM, 3 h) was “approximately a threefold increase”. The Growth % ([2]; HT29, 10 μM, one dose, 48 h) was 7.66%, the morphological changes [3] was “cell shrinkage and chromatin condensation” and the “Bax positive cells, cell population” value [4] was 12.27 ± 0.45%.
In the case of `COc1cc(NC2=NC(=O)C(=Cc3c[nH]c4ccccc34)S2)cc(OC)c1OC` [Les-6418, 5-((1H-Indol-3-yl)methylene)-2-((3,4,5-trimethoxyphenyl)amino)thiazol-4(5H)-one], the GI50 ([5]; Homo sapiens, SK-MEL-2, 48 h) was 1450 nM, the CC50 ([5]; Homo sapiens, SK-MEL-2, 48 h, read-out: LC50 (the source's name)) was 43.1 µM and the TGI ([5]; SK-MEL-2, 48 h) was 12.2 µM. The “SI (TGI)” value ([5]; SK-MEL-2, MG_MID_60/value) was 1.52, the TGI ([6]; 48 h) was 12.0 µM and the GI50 ([6]; Homo sapiens, 48 h) was 3.2 µM. The CC50 [6, 16] was 36.1 µM, the “SI (TGI)” value ([6]; MG_MID_60/value) was 1.55 and the GI50 ([7]; Homo sapiens, KM12, 48 h) was 977 nM. The CC50 ([7]; Homo sapiens, KM12, 48 h, read-out: LC50 (the source's name)) was 70.7 µM, the TGI ([7]; KM12, 48 h) was 16.8 µM and the “SI (TGI)” value ([7]; KM12, MG_MID_60/value) was 1.11. For the same molecule, the “SI (TGI)” value [8] was 1.34, the TGI ([9]; 48 h) was > 100 µM and the GI50 ([9]; Homo sapiens, 48 h) was 2090 nM. The CC50 [9, 16] was > 100 µM, the “SI (TGI)” value ([9]; MG_MID_60/value) was 0.19 and the TGI ([10]; 48 h) was 24.2 µM. For the same molecule, the GI50 ([10]; Homo sapiens, 48 h) was 6.24 µM, the CC50 [10, 16] was 74.2 µM and the “SI (TGI)” value ([10]; MG_MID_60/value) was 0.77. It also gave a GI50 ([11]; Homo sapiens, OVCAR-8, 48 h) of 10.6 µM, an LC50 (50% lethal concentration) ([11]; Homo sapiens, OVCAR-8, 48 h) of 70.1 µM and a TGI ([11]; OVCAR-8, 48 h) of 27.2 µM. For the same molecule, the “SI (TGI)” value ([11]; OVCAR-8, MG_MID_60/value) was 0.68, the TGI ([2]; HT29, 48 h) was 10.1 µM and the “SI (TGI)” value ([2]; HT29, MG_MID_60/value) was 1.84. It also gave a GI50 ([2]; Homo sapiens, HT-29, HT29, 48 h) of 923 nM, a CC50 ([2]; Homo sapiens, HT-29, HT29, 48 h, read-out: LC50 (the source's name)) of 47.6 µM and a GI50 ([12]; Homo sapiens, RPMI-8226, 48 h) of 5.73 µM. The CC50 ([12]; Homo sapiens, RPMI-8226, 48 h, read-out: LC50 (the source's name)) was > 100 µM, the TGI ([12]; RPMI-8226, 48 h) was > 100 µM and the “SI (TGI)” value ([12]; RPMI-8226, MG_MID_60/value) was 0.19. The “Bax positive cells, cell population” value [4] was 8.27 ± 0.58%, the GI50 ([13]; Homo sapiens, SF-539, 48 h) was 2490 nM and the CC50 ([13]; Homo sapiens, SF-539, 48 h, read-out: LC50 (the source's name)) was 35.5 µM. The Growth % ([13]; SF-539, 10 μM, one dose, 48 h) was −85.30%, the TGI ([13]; SF-539, 48 h) was 9.95 µM and the “SI (TGI)” value ([13]; SF-539, MG_MID_60/value) was 1.87. The GI50 ([14]; Homo sapiens, SK-MEL-28, 48 h) was 6.07 µM, the CC50 ([14]; Homo sapiens, SK-MEL-28, 48 h, read-out: LC50 (the source's name)) was 49.9 µM and the TGI ([14]; SK-MEL-28, 48 h) was 21.0 µM. For the same molecule, the “SI (TGI)” value ([14]; SK-MEL-28, MG_MID_60/value) was 0.89, the GI50 ([15]; Homo sapiens, SK-OV-3, 48 h) was 2560 nM and the CC50 ([15]; Homo sapiens, SK-OV-3, 48 h, read-out: LC50 (the source's name)) was 38.5 µM. The TGI ([15]; SK-OV-3, 48 h) was 10.3 µM and the “SI (TGI)” value ([15]; SK-OV-3, MG_MID_60/value) was 1.81.
